Source: PubChem BioAssay AID1963850 (Molecular Pharmacology Branch, DTP, NCI, 2024)

Tested on: 192522-019-R-J2-PDC complex tumor spheroid viability
Experiment: Anticancer human tumor 192522-019-R-J2-PDC patient-derived colon adenocarcinoma cell line growth inhibition [POLQ]
Conditions: for IC50: curve of first compound; for viability, T/C: stronger effect = lower value
Method in brief: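 Growth inhibition in 3D: complex spheroids (tumor PDC, HUVEC, MSC) treated with POLQ inhibitor combinations; where Cmax unknown, highest tested concentration 10 microM, except SN-38 at 1 microM.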

[1] = second compound 0.0316 µM, first compound 0.0316 µM
[2] = second compound 0.0316 µM, first compound 0.1 µM
[3] = second compound 0.0316 µM, first compound 0.316 µM
[4] = second compound 0.0316 µM, first compound 1 µM
[5] = second compound 0.0316 µM, first compound 3.16 µM
[6] = second compound 0.0316 µM, first compound 10 µM
[7] = second compound 0.1 µM, first compound 0.0316 µM
[8] = second compound 0.1 µM, first compound 0.1 µM
[9] = second compound 0.1 µM, first compound 0.316 µM
[10] = second compound 0.1 µM, first compound 1 µM
[11] = second compound 0.1 µM, first compound 3.16 µM
[12] = second compound 0.1 µM, first compound 10 µM
[13] = second compound 0.316 µM, first compound 0.0316 µM
[14] = second compound 0.316 µM, first compound 0.1 µM
[15] = second compound 0.316 µM, first compound 0.316 µM
[16] = second compound 0.316 µM, first compound 1 µM
[17] = second compound 0.316 µM, first compound 3.16 µM
[18] = second compound 0.316 µM, first compound 10 µM
[19] = second compound 1 µM, first compound 0.0316 µM
[20] = second compound 1 µM, first compound 0.1 µM
[21] = second compound 1 µM, first compound 0.316 µM
[22] = second compound 1 µM, first compound 1 µM
[23] = second compound 1 µM, first compound 3.16 µM
[24] = second compound 1 µM, first compound 10 µM
[25] = second compound 3.16 µM, first compound 0.0316 µM
[26] = second compound 3.16 µM, first compound 0.1 µM
[27] = second compound 3.16 µM, first compound 0.316 µM
[28] = second compound 3.16 µM, first compound 1 µM
[29] = second compound 3.16 µM, first compound 3.16 µM
[30] = second compound 3.16 µM, first compound 10 µM
[31] = second compound 10 µM, first compound 0.0316 µM
[32] = second compound 10 µM, first compound 0.1 µM
[33] = second compound 10 µM, first compound 0.316 µM
[34] = second compound 10 µM, first compound 1 µM
[35] = second compound 10 µM, first compound 3.16 µM
[36] = second compound 10 µM, first compound 10 µM
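Also: spheroids exposed to drugs for seven days before reading.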
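For viability, T/C in this document: 100% = DMSO vehicle control viability in luminescence.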

CC1COCCN1c1cc(-c2ccnn2C)c2ccnc(-c3ccn[nH]3)c2n1 (stereo not drawn) + COC1C(OC(N)=O)C(O)C(Oc2ccc3c(O)c(NC(=O)c4ccc(O)c(CC=C(C)C)c4)c(=O)oc3c2C)OC1(C)C
IC50 (second compound 0.0316 µM): 248 nM | IC50 (second compound 0.1 µM): 304 nM | IC50 (second compound 0.316 µM): 385 nM | IC50 (second compound 1 µM): 304 nM | IC50 (second compound 3.16 µM): 304 nM | IC50 (second compound 10 µM): 294 nM | viability, T/C [1]: 92.7% | viability, T/C [2]: 70.6% | viability, T/C [3]: 45.5% | viability, T/C [4]: 34.8% | viability, T/C [5]: 38.4% | viability, T/C [6]: 45% | viability, T/C [7]: 103% | viability, T/C [8]: 80.9% | viability, T/C [9]: 50.3% | viability, T/C [10]: 35.9% | viability, T/C [11]: 36.9% | viability, T/C [12]: 45.9% | viability, T/C [13]: 93.4% | viability, T/C [14]: 84.1% | viability, T/C [15]: 52.8% | viability, T/C [16]: 35.4% | viability, T/C [17]: 39.1% | viability, T/C [18]: 47.6% | viability, T/C [19]: 101% | viability, T/C [20]: 87.6% | viability, T/C [21]: 49.5% | viability, T/C [22]: 33.8% | viability, T/C [23]: 33.6% | viability, T/C [24]: 47.2% | viability, T/C [25]: 98.6% | viability, T/C [26]: 86.1% | viability, T/C [27]: 49.5% | viability, T/C [28]: 34.6% | viability, T/C [29]: 43.1% | viability, T/C [30]: 48.3% | viability, T/C [31]: 103% | viability, T/C [32]: 77.6% | viability, T/C [33]: 50.2% | viability, T/C [34]: 32.3% | viability, T/C [35]: 44.9% | viability, T/C [36]: 46.8%

CC1COCCN1c1cc(C2(S(C)(=N)=O)CC2)nc(-c2ccnc3[nH]ccc23)n1 (stereo not drawn) + COC1C(OC(N)=O)C(O)C(Oc2ccc3c(O)c(NC(=O)c4ccc(O)c(CC=C(C)C)c4)c(=O)oc3c2C)OC1(C)C
IC50 (second compound 0.0316 µM): 4720 nM | IC50 (second compound 0.1 µM): 4580 nM | IC50 (second compound 0.316 µM): 3330 nM | IC50 (second compound 1 µM): 5310 nM | IC50 (second compound 3.16 µM): 5420 nM | IC50 (second compound 10 µM): 5180 nM | viability, T/C [1]: 108% | viability, T/C [2]: 94.3% | viability, T/C [3]: 99.6% | viability, T/C [4]: 97.3% | viability, T/C [5]: 61.3% | viability, T/C [6]: 28.7% | viability, T/C [7]: 118% | viability, T/C [8]: 99% | viability, T/C [9]: 103% | viability, T/C [10]: 95.4% | viability, T/C [11]: 56.2% | viability, T/C [12]: 36.1% | viability, T/C [13]: 103% | viability, T/C [14]: 99.2% | viability, T/C [15]: 108% | viability, T/C [16]: 95.8% | viability, T/C [17]: 51% | viability, T/C [18]: 31.9% | viability, T/C [19]: 101% | viability, T/C [20]: 103% | viability, T/C [21]: 99% | viability, T/C [22]: 97.3% | viability, T/C [23]: 63.1% | viability, T/C [24]: 34% | viability, T/C [25]: 102% | viability, T/C [26]: 109% | viability, T/C [27]: 104% | viability, T/C [28]: 91.8% | viability, T/C [29]: 60.9% | viability, T/C [30]: 37.8% | viability, T/C [31]: 104% | viability, T/C [32]: 103% | viability, T/C [33]: 114% | viability, T/C [34]: 95.7% | viability, T/C [35]: 62.9% | viability, T/C [36]: 33.2%

CCCS(=O)(=O)Nc1ccc(F)c(C(=O)c2c[nH]c3ncc(-c4ccc(Cl)cc4)cc23)c1F + COC1C(OC(N)=O)C(O)C(Oc2ccc3c(O)c(NC(=O)c4ccc(O)c(CC=C(C)C)c4)c(=O)oc3c2C)OC1(C)C
IC50 (second compound 0.0316 µM): > 10000 nM | IC50 (second compound 0.1 µM): > 10000 nM | IC50 (second compound 0.316 µM): > 10000 nM | IC50 (second compound 1 µM): > 10000 nM | IC50 (second compound 3.16 µM): > 10000 nM | IC50 (second compound 10 µM): > 10000 nM | viability, T/C [1]: 115% | viability, T/C [2]: 97.6% | viability, T/C [3]: 110% | viability, T/C [4]: 96.9% | viability, T/C [5]: 124% | viability, T/C [6]: 97.9% | viability, T/C [7]: 105% | viability, T/C [8]: 103% | viability, T/C [9]: 110% | viability, T/C [10]: 108% | viability, T/C [11]: 107% | viability, T/C [12]: 113% | viability, T/C [13]: 109% | viability, T/C [14]: 110% | viability, T/C [15]: 105% | viability, T/C [16]: 106% | viability, T/C [17]: 104% | viability, T/C [18]: 108% | viability, T/C [19]: 104% | viability, T/C [20]: 100% | viability, T/C [21]: 107% | viability, T/C [22]: 103% | viability, T/C [23]: 101% | viability, T/C [24]: 100% | viability, T/C [25]: 110% | viability, T/C [26]: 102% | viability, T/C [27]: 108% | viability, T/C [28]: 97.3% | viability, T/C [29]: 106% | viability, T/C [30]: 117% | viability, T/C [31]: 107% | viability, T/C [32]: 102% | viability, T/C [33]: 103% | viability, T/C [34]: 101% | viability, T/C [35]: 124% | viability, T/C [36]: 117%

Cn1ncnc1[C@H]1c2n[nH]c(=O)c3cc(F)cc(c23)N[C@@H]1c1ccc(F)cc1 + COC1C(OC(N)=O)C(O)C(Oc2ccc3c(O)c(NC(=O)c4ccc(O)c(CC=C(C)C)c4)c(=O)oc3c2C)OC1(C)C
IC50 (second compound 0.0316 µM): > 100 nM | IC50 (second compound 0.1 µM): > 100 nM | IC50 (second compound 0.316 µM): > 100 nM | IC50 (second compound 1 µM): > 100 nM | IC50 (second compound 3.16 µM): > 100 nM | IC50 (second compound 10 µM): > 100 nM | viability, T/C (second compound 0.0316 µM, first compound 0.000316 µM): 118% | viability, T/C (second compound 0.0316 µM, first compound 0.001 µM): 91.9% | viability, T/C (second compound 0.0316 µM, first compound 0.00316 µM): 95.2% | viability, T/C (second compound 0.0316 µM, first compound 0.01 µM): 96.6% | viability, T/C [1]: 102% | viability, T/C [2]: 91.4% | viability, T/C (second compound 0.1 µM, first compound 0.000316 µM): 103% | viability, T/C (second compound 0.1 µM, first compound 0.001 µM): 100% | viability, T/C (second compound 0.1 µM, first compound 0.00316 µM): 103% | viability, T/C (second compound 0.1 µM, first compound 0.01 µM): 103% | viability, T/C [7]: 100% | viability, T/C [8]: 97.2% | viability, T/C (second compound 0.316 µM, first compound 0.000316 µM): 99.9% | viability, T/C (second compound 0.316 µM, first compound 0.001 µM): 99.2% | viability, T/C (second compound 0.316 µM, first compound 0.00316 µM): 99.4% | viability, T/C (second compound 0.316 µM, first compound 0.01 µM): 97.4% | viability, T/C [13]: 93.8% | viability, T/C [14]: 87.2% | viability, T/C (second compound 1 µM, first compound 0.000316 µM): 98.8% | viability, T/C (second compound 1 µM, first compound 0.001 µM): 95.6% | viability, T/C (second compound 1 µM, first compound 0.00316 µM): 101% | viability, T/C (second compound 1 µM, first compound 0.01 µM): 99.2% | viability, T/C [19]: 86.5% | viability, T/C [20]: 95.1% | viability, T/C (second compound 3.16 µM, first compound 0.000316 µM): 110% | viability, T/C (second compound 3.16 µM, first compound 0.001 µM): 98.8% | viability, T/C (second compound 3.16 µM, first compound 0.00316 µM): 108% | viability, T/C (second compound 3.16 µM, first compound 0.01 µM): 98.1% | viability, T/C [25]: 95.8% | viability, T/C [26]: 90.5% | viability, T/C (second compound 10 µM, first compound 0.000316 µM): 108% | viability, T/C (second compound 10 µM, first compound 0.001 µM): 89.8% | viability, T/C (second compound 10 µM, first compound 0.00316 µM): 96.4% | viability, T/C (second compound 10 µM, first compound 0.01 µM): 102% | viability, T/C [31]: 107% | viability, T/C [32]: 94.4%
